Test results reported in ChEMBL document CHEMBL1201862, “PubChem BioAssay data set” (2004).
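Exposure lasted 48 hours, with cells grown in 96-well plates and compounds tested at five concentrations. The concentration for 50% growth inhibition is given as GI50.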 Calls of active or inactive are those of the source. No stated cut-off is given here; in the data, active = GI50 up to about 1.1 µM and inactive = higher.

Experiments:
Assay in all cases: growth of human tumour cells (NCI), 48 h
[1] = test system: UO-31
[2] = test system: ACHN
[3] = test system: CAKI-1
[4] = test system: OVCAR-8
[5] = test system: Malme-3M
[6] = test system: UACC-257
[7] = test system: MCF7
[8] = test system: A549
[9] = test system: TK-10
[10] = test system: MOLT-4
[11] = test system: NCI-H226
[12] = test system: SF-268
[13] = test system: NCI/ADR-RES
[14] = test system: Hs-578T
[15] = test system: SR
[16] = test system: RPMI-8226
[17] = test system: NCI-H460
[18] = test system: OVCAR-4
[19] = test system: SK-MEL-2
[20] = test system: HCC 2998

Row | SMILES | GI50 [1] | GI50 [2] | GI50 [3] | GI50 [4] | GI50 [5] | GI50 [6] | GI50 [7] | GI50 [8] | GI50 [9] | GI50 [10] | GI50 [11] | GI50 [12] | GI50 [13] | GI50 [14] | GI50 [15] | GI50 [16] | GI50 [17] | GI50 [18] | GI50 [19] | GI50 [20]
1 | Cc1cc(-c2nc3ccccc3s2)ccc1NS(=O)(=O)O | > 7.82 µM (inactive) | > 7.78 µM (inactive) | > 7.21 µM (inactive) | > 4.85 µM (inactive) | > 6.56 µM (inactive) | > 6.43 µM (inactive) | < 0.0382 µM (active) | > 5.82 µM (inactive) | > 26.1 µM (inactive) | 4.73 µM (inactive) | > 39.9 µM (inactive) | > 9.64 µM (inactive) | > 7.1 µM (inactive) | > 6.28 µM (inactive) | 4.34 µM (inactive) | > 4.65 µM (inactive) |  |  |  | 
2 | COc1nc2c(c(=O)n1C)N[C@@H]1[C@@H](O)[C@H](O)CO[C@@H]1N2 | > 100 µM (inactive) |  | > 100 µM (inactive) | > 100 µM (inactive) | 39.4 µM (inactive) | > 100 µM (inactive) | > 100 µM (inactive) | > 100 µM (inactive) | > 100 µM (inactive) | > 100 µM (inactive) | > 100 µM (inactive) | > 100 µM (inactive) | > 100 µM (inactive) | > 100 µM (inactive) | > 100 µM (inactive) | > 100 µM (inactive) | > 100 µM (inactive) | > 100 µM (inactive) | > 100 µM (inactive) | 
3 | CC(NC(=O)CNP(=O)(c1ccccc1)c1ccccc1)C(=O)NC(Cc1ccccc1)C(=O)OCc1ccccc1 (centres undefined) | > 100 µM (inactive) |  | > 100 µM (inactive) | > 100 µM (inactive) | 60.8 µM (inactive) | > 100 µM (inactive) | 24.6 µM (inactive) | > 100 µM (inactive) | > 100 µM (inactive) | 20.5 µM (inactive) | > 100 µM (inactive) | 21.6 µM (inactive) | > 100 µM (inactive) | 27.5 µM (inactive) | 24.9 µM (inactive) | 33 µM (inactive) |  |  | 51.2 µM (inactive) | 
4 | CCCCC/C=C\C=C\CCCCCCCCC(=O)OC | 13.9 µM (inactive) | > 100 µM (inactive) | > 100 µM (inactive) | > 100 µM (inactive) | > 100 µM (inactive) | > 100 µM (inactive) | > 100 µM (inactive) | > 100 µM (inactive) | > 100 µM (inactive) | > 100 µM (inactive) | > 100 µM (inactive) | > 100 µM (inactive) | > 100 µM (inactive) | > 100 µM (inactive) | > 100 µM (inactive) | > 100 µM (inactive) | > 100 µM (inactive) | > 100 µM (inactive) | > 100 µM (inactive) | 
5 | CC(=O)Nc1nc(O)c2nc(C=O)cnc2n1 | > 100 µM (inactive) | > 100 µM (inactive) | > 100 µM (inactive) | > 100 µM (inactive) | > 100 µM (inactive) | > 100 µM (inactive) | > 100 µM (inactive) | > 100 µM (inactive) | > 100 µM (inactive) | > 100 µM (inactive) | > 100 µM (inactive) | > 100 µM (inactive) | > 100 µM (inactive) | > 100 µM (inactive) | > 100 µM (inactive) | > 100 µM (inactive) | > 100 µM (inactive) | > 100 µM (inactive) | > 100 µM (inactive) | 
6 | CN(C)CCCNCc1cccc2ccccc12 | > 100 µM (inactive) | > 100 µM (inactive) |  | > 100 µM (inactive) | > 100 µM (inactive) | > 100 µM (inactive) | > 100 µM (inactive) | > 100 µM (inactive) | > 100 µM (inactive) | > 100 µM (inactive) | > 100 µM (inactive) | > 100 µM (inactive) | > 100 µM (inactive) | > 100 µM (inactive) | 25.6 µM (inactive) | > 100 µM (inactive) | > 100 µM (inactive) | > 100 µM (inactive) | > 100 µM (inactive) | 
7 | Cc1cc(C)cc(C(=N)c2ccccc2Cc2cccc3ccccc23)c1 | 26.4 µM (inactive) | 16.6 µM (inactive) | 19.5 µM (inactive) | 18 µM (inactive) | 12.8 µM (inactive) | 22.2 µM (inactive) | 16.2 µM (inactive) | 16 µM (inactive) | 25.6 µM (inactive) | 9.64 µM (inactive) | 14.6 µM (inactive) | 15.9 µM (inactive) | 20.2 µM (inactive) | 3.47 µM (inactive) | 14.2 µM (inactive) | 20.3 µM (inactive) | 13.5 µM (inactive) | 15.8 µM (inactive) | 37.8 µM (inactive) | 
8 | Cc1cc(/N=C/c2ccc(F)cc2)n(-c2ccccc2)n1 | > 100 µM (inactive) | > 100 µM (inactive) | > 100 µM (inactive) | > 100 µM (inactive) | 75.5 µM (inactive) | 50.1 µM (inactive) | 46.7 µM (inactive) | 92 µM (inactive) | 57 µM (inactive) | 35.3 µM (inactive) | > 100 µM (inactive) | > 100 µM (inactive) | > 100 µM (inactive) | > 100 µM (inactive) | 35.4 µM (inactive) | 21.3 µM (inactive) | 41.5 µM (inactive) | 75.7 µM (inactive) | > 100 µM (inactive) | 
9 | COc1cc2nc3n(c(=O)c2cc1OC)CCCCC3 | > 100 µM (inactive) | > 100 µM (inactive) | > 100 µM (inactive) | > 100 µM (inactive) | > 100 µM (inactive) | > 100 µM (inactive) | > 100 µM (inactive) | > 100 µM (inactive) | > 100 µM (inactive) | > 100 µM (inactive) | > 100 µM (inactive) | > 100 µM (inactive) | > 100 µM (inactive) | > 100 µM (inactive) | > 100 µM (inactive) | 83.9 µM (inactive) | > 100 µM (inactive) | > 100 µM (inactive) | > 100 µM (inactive) | 
10 | CC(C)N(c1cc2c(cc1F)c(=O)c(C(=O)O)cn2-c1ccc(N2CCN(C)CC2)cn1)C(C)C | > 100 µM (inactive) |  | > 100 µM (inactive) | > 100 µM (inactive) | > 100 µM (inactive) | > 100 µM (inactive) | > 100 µM (inactive) | > 100 µM (inactive) | > 100 µM (inactive) | > 100 µM (inactive) | > 100 µM (inactive) | > 100 µM (inactive) | > 100 µM (inactive) | > 100 µM (inactive) | > 100 µM (inactive) | > 100 µM (inactive) | > 100 µM (inactive) | > 100 µM (inactive) |  | 
11 | CCCCCCCCCC[C@H](O)[C@H](O)CC[C@@H](O)[C@H]1CC[C@@H]([C@H]2CC[C@H](CCCCCCC[C@@H](O)CC3=C[C@H](C)OC3=O)O2)O1 | 1.22 µM (inactive) | 17.4 µM (inactive) | 2.25 µM (inactive) | 2.95 µM (inactive) | 15.3 µM (inactive) | 1.55 µM (inactive) | 1.16 µM (inactive) | 1.84 µM (inactive) | 4.95 µM (inactive) | 2.26 µM (inactive) | 1.47 µM (inactive) | 2.15 µM (inactive) | 1.25 µM (inactive) | 2.79 µM (inactive) |  | 0.82 µM (active) | 1.82 µM (inactive) | 24.4 µM (inactive) | 1.72 µM (inactive) | 18.8 µM (inactive)
